Experimental data from US7332476B2, “Pyridyl substituted ketolide antibiotics” (Novartis AG, priority 2003, dated 2008).

How the values were obtained:
Experiment in all cases: MIC, broth microdilution (NCCLS)
Format in all cases: cell-based
[1] = test system: Streptococcus pyogenes Stpy_8668
Experimental: (§1) Strains. The bacterial isolates listed in Table 4 were cultivated from −70° C. frozen stocks by two consecutive overnight passages (P1, P2) at 35° C. on 5% blood agar (Remel, Lenexa, Kans.). Chocolate agar (Remel) is used for Haemophilus influenzae. H. influenzae and Streptococcus pneumoniae are incubated in 5-10% CO2
(§2) Drug Stock Preparation. To determine the amount of solvent to be used to give the desired final concentration, the formula “weight obtained in mg/final concentration in mg/ml” will be used. It will give the amount of solvent in ml needed to be added to give the desired concentration. For example, if 2.5 mg/ml is the desired concentration and the weight of compound is 13.7 mg, then the amount of solvent to be added is […]. Methanol is used as the solvent to dissolve the test compounds. Further dilution of stock is done in sterile, deionized water. Drug stocks are kept frozen at −70° C., protected from light.
(§3) Susceptibility Testing. MICs are determined by the broth microdilution method in accordance with the NCCLS guidelines. In brief, organism suspensions are adjusted to a 0.5 McFarland standard to yield a final inoculum between 3×10^5 and 7×10^5 CFU/ml. Drug dilutions and inocula are made in sterile, cation adjusted Mueller-Hinton Broth (CAMHB) (Remel) for all but S. pneumoniae [CAMHB with 2-5% lysed horse blood (Remel)] and H. influenzae [Haemophilus Test Medium (Remel)]. An inoculum volume of 100 μl is added to wells containing 100 μl of broth with 2-fold serial dilutions of drug. All inoculated microdilution trays are incubated in ambient air at 35° C. for 18-24 hours, except for S. pneumoniae, and H. influenzae (both at 5-10% CO2).
(§4) Following appropriate incubation, the MIC is determined and the MIC is defined as the lowest concentration of the drug that prevented visible growth.
as §1, with “8” for “4”
(§5) Following appropriate incubation, the MIC is determined and the MIC is defined as the lowest concentration of the drug that prevented visible growth. […] Antibacterial activity of representative compounds of the invention were compared against telitromycin.

[2] = test system: Streptococcus pneumoniae Stpn_297-749
Experimental: as §1, §2, §3, §4
as §1, with “8” for “4”
as §5

[3] = test system: Streptococcus pneumoniae Stpn_280-962
Experimental: as §1, §2, §3, §4
as §1, with “8” for “4”
as §5

[4] = test system: Streptococcus pneumoniae Stpn_49619
Experimental: as §1, §2, §3, §4
as §1, with “8” for “4”
as §5

[5] = Table 7, Strain ID E (Table 6): S. pyogenes Stpy_8668
[6] = Table 7, Strain ID G (Table 6): S. pneumoniae Stpn_297-749
[7] = Table 7, Strain ID H (Table 6): S. pneumoniae Stpn_280-962
[8] = Table 7, Strain ID F (Table 6): S. pneumoniae Stpn_49619

Row | Compound | MIC [1, 5] | MIC [2, 6] | MIC [3, 7] | MIC [4, 8] | MIC ([1]; Table 5, Strain ID D (Table 4): S. pyogenes Stpy_8668) | MIC ([4]; Table 5, Strain ID E (Table 4): S. pneumoniae Stpn_49619) | MIC ([2]; Table 5, Strain ID F (Table 4): S. pneumoniae Stpn_297-749 Pen R) | MIC ([3]; Table 5, Strain ID G (Table 4): S. pneumoniae Stpn_280-962 Pen S)
1 | CC[C@H]1OC(=O)[C@@](C)(F)C(=O)[C@H](C)[C@@H](OC2O[C@H](C)C[C@H](N(C)C)[C@H]2O)[C@@](C)(OC)C[C@@H](C)C(=O)[C@H](C)[C@H]2N(CCCCn3cnc4ncccc43)C(=O)O[C@]12CC (stereo partly drawn) [Example 27, (3aS,4R,7S,9R,10R,11S,13R,15R,15aR)-3a,4-diethyl-7-fluoro-1-[4-(1H-imidazo[4,5-b]pyridin-1-yl)butyl]-11-methoxy-7,9,11,13,15-pentamethyl-2,6,8,14-tetraoxotetradecahydro-2H-oxacyclotetradecino[4,3-d][1,3]oxazol-10-yl-3,4,6-trideoxy-3-(dimethylamino)-D-xylo-hexopyranoside] | =0.025 | =0.025 | =0.025 |  |  |  |  | 
2 | CC[C@H]1OC(=O)[C@H](C)C(=O)[C@H](C)[C@@H](OC2O[C@H](C)C[C@H](N(C)C)[C@H]2O)[C@@](C)(OC)C[C@@H](C)C(=O)[C@H](C)[C@H]2N(CCCCn3cnc(-c4ccc(C)nc4)c3)C(=O)O[C@]12CC (stereo partly drawn) [Example 29, (3aS,4R,7R,9R,10R,11S,13R,15R,15aR)-3a,4-diethyl-11-methoxy-7,9,11,13,15-pentamethyl-1-{4-[4-(6-methylpyridin-3-yl)-1H-imidazol-1-yl]butyl}-2,6,8,14-tetraoxotetradecahydro-2H-oxacyclotetradecino[4,3-d][1,3]oxazol-10-yl-3,4,6-trideoxy-3-(dimethylamino)-D-xylo-hexopyranoside] | =0.05 | =0.05 | =0.05 | =0.05 |  |  |  | 
3 | CC[C@H]1OC(=O)[C@@](C)(F)C(=O)[C@H](C)[C@@H](OC2O[C@H](C)C[C@H](N(C)C)[C@H]2O)[C@@](C)(OC)C[C@@H](C)C(=O)[C@H](C)[C@H]2N(CCCCc3ccnc4ccccc34)C(=O)O[C@]12CC (stereo partly drawn) [Example 17, (3aS,4R,7S,9R,10R,11S,13R,15R,15aR)-3a,4-diethyl-7-fluoro-11-methoxy-7,9,11,13,15-pentamethyl-2,6,8,14-tetraoxo-1-(4-quinolin-4-ylbutyl)tetradecahydro-2H-oxacyclotetradecino[4,3-d][1,3]oxazol-10-yl-3,4,6-trideoxy-3-(dimethylamino)-D-xylo-hexopyranoside] |  | =0.05 | =0.05 | =0.05 |  |  |  | 
4 | CC[C@H]1OC(=O)[C@H](C)C(=O)[C@H](C)[C@@H](OC2O[C@H](C)C[C@H](N(C)C)[C@H]2O)[C@@](C)(OC)C[C@@H](C)C(=O)[C@H](C)[C@H]2N(CCCCn3cnc4ncccc43)C(=O)O[C@]12CC (stereo partly drawn) [Example 22, (3aS,4R,7R,9R,10R,11S,13R,15R,15aR)-3a,4-diethyl-1-[4-(1H-imidazo[4,5-b]pyridin-1-yl)butyl]-11-methoxy-7,9,11,13,15-pentamethyl-2,6,8,14-tetraoxotetradecahydro-2H-oxacyclotetradecino[4,3-d][1,3]oxazol-10-yl-3,4,6-trideoxy-3-(dimethylamino)-D-xylo-hexopyranoside] | =0.05 | =0.05 | =0.05 | =0.05 |  |  |  | 
5 | CC[C@H]1OC(=O)[C@H](C)C(=O)[C@H](C)[C@@H](OC2O[C@H](C)C[C@H](N(C)C)[C@H]2O)[C@@](C)(OC)C[C@@H](C)C(=O)[C@H](C)[C@H]2N(CCCCn3cnc(-c4cncnc4)c3)C(=O)O[C@]12CC (stereo partly drawn) [Example 25, (3aS,4R,7R,9R,10R,11S,13R,15R,15aR)-3a,4-diethyl-11-methoxy-7,9,11,13,15-pentamethyl-2,6,8,14-tetraoxo-1-[4-(4-pyrimidin-5-yl-1H-imidazol-1-yl)butyl]tetradecahydro-2H-oxacyclotetradecino[4,3-d][1,3]oxazol-10-yl-3,4,6-trideoxy-3-(dimethylamino)-D-xylo-hexopyranoside] | =0.05 | =0.05 | =0.05 | =0.05 |  |  |  | 
6 | CC[C@H]1OC(=O)[C@H](C)C(=O)[C@H](C)[C@@H](OC2O[C@H](C)C[C@H](N(C)C)[C@H]2O)[C@@](C)(OC)C[C@@H](C)C(=O)[C@H](C)[C@H]2N(CCCC(C)(C)n3cnc4ncccc43)C(=O)O[C@]12CC (stereo partly drawn) [Example 37, (3aS,4R,7R,9R,10R,11S,13R,15R,15aR)-3a,4-diethyl-1-[4-(1H-imidazo[4,5-b]pyridin-1-yl)-4-methylpentyl]-11-methoxy-7,9,11,13,15-pentamethyl-2,6,8,14-tetraoxotetradecahydro-2H-oxacyclotetradecino[4,3-d][1,3]oxazol-10-yl-3,4,6-trideoxy-3-(dimethylamino)-D-xylo-hexopyranoside] | =0.05 | =0.05 | =0.05 | =0.05 |  |  |  | 
7 | CC[C@H]1OC(=O)[C@H](C)[C@@H](O[C@H]2C[C@@](C)(OC)[C@@H](O)[C@H](C)O2)[C@H](C)[C@@H](O[C@@H]2O[C@H](C)C[C@H](N(C)C)[C@H]2O)[C@](C)(OC)C[C@@H](C)C(=O)[C@H](C)[C@@H](O)[C@]1(C)O [Clar., clarithromycin, reference compound] |  |  |  |  | =0.05 | =0.05 | =0.05 | =0.05
8 | CC[C@H]1OC(=O)[C@H](C)C(=O)[C@H](C)[C@@H](OC2O[C@H](C)C[C@H](N(C)C)[C@H]2O)[C@@](C)(OC)C[C@@H](C)C(=O)[C@H](C)[C@H]2N(CCCC(C)(C)n3cnc4cccnc43)C(=O)O[C@]12CC (stereo partly drawn) [Example 38, (3aS,4R,7R,9R,10R,11S,13R,15R,15aR)-3a,4-diethyl-1-[4-(3H-imidazo[4,5-b]pyridin-3-yl)-4-methylpentyl]-11-methoxy-7,9,11,13,15-pentamethyl-2,6,8,14-tetraoxotetradecahydro-2H-oxacyclotetradecino[4,3-d][1,3]oxazol-10-yl-3,4,6-trideoxy-3-(dimethylamino)-D-xylo-hexopyranoside] | =0.05 | =0.05 | =0.05 | =0.05 |  |  |  | 
9 | CC[C@H]1OC(=O)[C@H](C)C(=O)[C@H](C)[C@@H](OC2O[C@H](C)C[C@H](N(C)C)[C@H]2O)[C@@](C)(OC)C[C@@H](C)C(=O)[C@H](C)[C@H]2N(CCN(C)Cc3cccnc3)C(=O)O[C@]12CC (some centres unmarked) [Example 23] | =0.05 | =0.05 | =0.05 | =0.05 |  |  |  | 
10 | CC[C@H]1OC(=O)[C@H](C)C(=O)[C@H](C)[C@@H](OC2O[C@H](C)C[C@H](N(C)C)[C@H]2O)[C@@](C)(OC)C[C@@H](C)C(=O)[C@H](C)[C@H]2N(CCCCn3cnc(-c4ccncc4)c3)C(=O)O[C@]12CC (stereo partly drawn) [Example 28, (3aS,4R,7R,9R,10R,11S,13R,15R,15aR)-3a,4-DIETHYL-11-METHOXY-7,9,11,13,15-PENTAMETHYL-2,6,8,14-TETRAOXO-1-[4-(4-PYRIDIN-4-YL-1H-IMIDAZOL-1-YL)BUTYL]TETRADECAHYDRO-1H-OXACYCLOTETRADECINO[4,3-D][1,3]OXAZOL-10-YL-3,4,6-TRIDEOXY-3-(DIMETHYLAMINO)-D-XYLO-HEXOPYRANOSIDE] | =0.05 | =0.05 | =0.05 | =0.05 |  |  |  | 
11 | CC[C@H]1OC(=O)[C@@](C)(F)C(=O)[C@H](C)[C@@H](OC2O[C@H](C)C[C@H](N(C)C)[C@H]2O)[C@@](C)(OC)C[C@@H](C)C(=O)[C@H](C)[C@H]2N(CCCCc3ccc4ccccc4n3)C(=O)O[C@]12CC (stereo partly drawn) [Example 19, (3aS,4R,7S,9R,10R,11S,13R,15R,15aR)-3a,4-diethyl-7-fluoro-11-methoxy-7,9,11,13,15-pentamethyl-2,6,8,14-tetraoxo-1-(4-quinolin-2-ylbutyl)tetradecahydro-2H-oxacyclotetradecino[4,3-d][1,3]oxazol-10-yl-3,4,6-trideoxy-3-(dimethylamino)-D-xylo-hexopyranoside] |  | =0.05 | =0.05 | =0.05 |  |  |  | 
